Measured values as given in PubChem BioAssay (NCI).
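Grown in 96-well plates, cells were treated for 48 hours with each compound at five concentrations. Insufficient inhibition: endpoint recorded as highest concentration tested. GI50 = concentration required for 50% inhibition of growth. Definition used: TGI = concentration required for complete inhibition of growth.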

How the values were obtained:
Assay in all cases: growth of human tumour cells (NCI), 48 h
786-0 renal = tested on: 786-0 renal
A498 renal = tested on: A498 renal
A549 NSCLC = tested on: A549 NSCLC
ACHN renal = tested on: ACHN renal
BT-549 breast = tested on: BT-549 breast
CCRF-CEM leukemia = tested on: CCRF-CEM leukemia
COLO 205 colon = tested on: COLO 205 colon
DU-145 prostate = tested on: DU-145 prostate
EKVX NSCLC = tested on: EKVX NSCLC
HCC-2998 colon = tested on: HCC-2998 colon
HCT-116 colon = tested on: HCT-116 colon
HCT-15 colon = tested on: HCT-15 colon
HL-60(TB) leukemia = tested on: HL-60(TB) leukemia
HOP-62 NSCLC = tested on: HOP-62 NSCLC
HOP-92 NSCLC = tested on: HOP-92 NSCLC
HT29 colon = tested on: HT29 colon
IGROV1 ovarian = tested on: IGROV1 ovarian
K-562 leukemia = tested on: K-562 leukemia
KM12 colon = tested on: KM12 colon
LOX IMVI melanoma = tested on: LOX IMVI melanoma
M14 melanoma = tested on: M14 melanoma
MALME-3M melanoma = tested on: MALME-3M melanoma
MCF7 breast = tested on: MCF7 breast
MDA-MB-231 breast = tested on: MDA-MB-231 breast
MDA-MB-435 = tested on: MDA-MB-435
MOLT-4 leukemia = tested on: MOLT-4 leukemia
NCI-H226 lung = tested on: NCI-H226 lung
NCI-H23 lung = tested on: NCI-H23 lung
NCI-H460 lung = tested on: NCI-H460 lung
NCI-H522 lung = tested on: NCI-H522 lung
NCI/ADR-RES ovarian = tested on: NCI/ADR-RES ovarian
OVCAR-3 ovarian = tested on: OVCAR-3 ovarian
OVCAR-4 ovarian = tested on: OVCAR-4 ovarian
OVCAR-5 ovarian = tested on: OVCAR-5 ovarian
OVCAR-8 ovarian = tested on: OVCAR-8 ovarian
PC-3 prostate = tested on: PC-3 prostate
RPMI-8226 leukemia = tested on: RPMI-8226 leukemia
RXF 393 renal = tested on: RXF 393 renal
SF-268 CNS = tested on: SF-268 CNS
SF-295 CNS = tested on: SF-295 CNS
SF-539 CNS = tested on: SF-539 CNS
SK-MEL-2 melanoma = tested on: SK-MEL-2 melanoma
SK-MEL-28 melanoma = tested on: SK-MEL-28 melanoma
SK-MEL-5 melanoma = tested on: SK-MEL-5 melanoma
SK-OV-3 ovarian = tested on: SK-OV-3 ovarian
SN12C renal = tested on: SN12C renal
SNB-19 CNS = tested on: SNB-19 CNS
SNB-75 CNS = tested on: SNB-75 CNS
SR leukemia = tested on: SR leukemia
SW-620 colon = tested on: SW-620 colon
T-47D breast = tested on: T-47D breast
TK-10 renal = tested on: TK-10 renal
U251 CNS = tested on: U251 CNS
UACC-257 melanoma = tested on: UACC-257 melanoma
UACC-62 melanoma = tested on: UACC-62 melanoma
UO-31 renal = tested on: UO-31 renal

Compound `CC1(C)N=C(N)N=C(N)N1c1ccc(OCC(=O)N2CCOCC2)c(Cl)c1` has a GI50 (786-0 renal) of 20.2 µM, a TGI (786-0 renal) greater than 100 µM and a GI50 (A498 renal) greater than 100 µM. For the same compound, the TGI (A498 renal) was greater than 100 µM, the GI50 (A549 NSCLC) was 0.271 µM and the TGI (A549 NSCLC) was greater than 100 µM. The GI50 (ACHN renal) was greater than 100 µM, the TGI (ACHN renal) was greater than 100 µM and the GI50 (BT-549 breast) was 14.8 µM. For the same compound, the TGI (BT-549 breast) was greater than 100 µM, the GI50 (CCRF-CEM leukemia) was 3.55 µM and the TGI (CCRF-CEM leukemia) was greater than 100 µM. The GI50 (COLO 205 colon) was 8.8 µM, the TGI (COLO 205 colon) was greater than 100 µM and the GI50 (DU-145 prostate) was 0.994 µM. The TGI (DU-145 prostate) was greater than 100 µM, the GI50 (EKVX NSCLC) was 2.29 µM and the TGI (EKVX NSCLC) was greater than 100 µM. For the same compound, the GI50 (HCC-2998 colon) was 9.78 µM, the TGI (HCC-2998 colon) was greater than 100 µM and the GI50 (HCT-116 colon) was 0.667 µM. For the same compound, the TGI (HCT-116 colon) was greater than 100 µM, the GI50 (HCT-15 colon) was greater than 100 µM and the TGI (HCT-15 colon) was greater than 100 µM. The GI50 (HL-60(TB) leukemia) was 0.981 µM, the TGI (HL-60(TB) leukemia) was greater than 100 µM and the GI50 (HOP-62 NSCLC) was 12.2 µM. For the same compound, the TGI (HOP-62 NSCLC) was greater than 100 µM, the GI50 (HOP-92 NSCLC) was greater than 100 µM and the TGI (HOP-92 NSCLC) was greater than 100 µM. The GI50 (HT29 colon) was 0.66 µM, the TGI (HT29 colon) was greater than 100 µM and the GI50 (IGROV1 ovarian) was 0.379 µM. For the same compound, the TGI (IGROV1 ovarian) was 12.9 µM, the GI50 (K-562 leukemia) was 0.854 µM and the TGI (K-562 leukemia) was greater than 100 µM. It also gave a GI50 (KM12 colon) of 4.7 µM, a TGI (KM12 colon) greater than 100 µM and a GI50 (LOX IMVI melanoma) of 0.545 µM. For the same compound, the TGI (LOX IMVI melanoma) was greater than 100 µM, the GI50 (M14 melanoma) was 4.19 µM and the TGI (M14 melanoma) was greater than 100 µM. For the same compound, the GI50 (MALME-3M melanoma) was 6.17 µM, the TGI (MALME-3M melanoma) was greater than 100 µM and the GI50 (MCF7 breast) was 1.36 µM. The TGI (MCF7 breast) was greater than 100 µM, the GI50 (MDA-MB-231 breast) was greater than 100 µM and the TGI (MDA-MB-231 breast) was greater than 100 µM. It also gave a GI50 (MDA-MB-435) of 0.565 µM, a TGI (MDA-MB-435) greater than 100 µM and a GI50 (MOLT-4 leukemia) of 6.31 µM. For the same compound, the TGI (MOLT-4 leukemia) was greater than 100 µM, the GI50 (NCI-H226 lung) was 33.5 µM and the TGI (NCI-H226 lung) was greater than 100 µM. It also gave a GI50 (NCI-H23 lung) of 1.5 µM, a TGI (NCI-H23 lung) greater than 100 µM and a GI50 (NCI-H460 lung) of 0.362 µM. It also gave a TGI (NCI-H460 lung) greater than 100 µM, a GI50 (NCI-H522 lung) of 2.24 µM and a TGI (NCI-H522 lung) greater than 100 µM. For the same compound, the GI50 (NCI/ADR-RES ovarian) was greater than 100 µM, the TGI (NCI/ADR-RES ovarian) was greater than 100 µM and the GI50 (OVCAR-3 ovarian) was 5.63 µM. For the same compound, the TGI (OVCAR-3 ovarian) was greater than 100 µM, the GI50 (OVCAR-4 ovarian) was greater than 100 µM and the TGI (OVCAR-4 ovarian) was greater than 100 µM. It also gave a GI50 (OVCAR-5 ovarian) of 84.4 µM, a TGI (OVCAR-5 ovarian) greater than 100 µM and a GI50 (OVCAR-8 ovarian) of 7.25 µM. The TGI (OVCAR-8 ovarian) was greater than 100 µM, the GI50 (PC-3 prostate) was 0.531 µM and the TGI (PC-3 prostate) was greater than 100 µM. The GI50 (RPMI-8226 leukemia) was 9.04 µM, the TGI (RPMI-8226 leukemia) was greater than 100 µM and the GI50 (RXF 393 renal) was 52.8 µM. The TGI (RXF 393 renal) was greater than 100 µM, the GI50 (SF-268 CNS) was 0.759 µM and the TGI (SF-268 CNS) was greater than 100 µM. It also gave a GI50 (SF-295 CNS) of 0.561 µM, a TGI (SF-295 CNS) greater than 100 µM and a GI50 (SF-539 CNS) of 5.32 µM. The TGI (SF-539 CNS) was greater than 100 µM, the GI50 (SK-MEL-2 melanoma) was greater than 100 µM and the TGI (SK-MEL-2 melanoma) was greater than 100 µM. It also gave a GI50 (SK-MEL-28 melanoma) of 30.1 µM, a TGI (SK-MEL-28 melanoma) greater than 100 µM and a GI50 (SK-MEL-5 melanoma) of 1.36 µM. It also gave a TGI (SK-MEL-5 melanoma) greater than 100 µM, a GI50 (SK-OV-3 ovarian) of 69.8 µM and a TGI (SK-OV-3 ovarian) greater than 100 µM. It also gave a GI50 (SN12C renal) of 6.9 µM, a TGI (SN12C renal) greater than 100 µM and a GI50 (SNB-19 CNS) of 19.1 µM. The TGI (SNB-19 CNS) was greater than 100 µM, the GI50 (SNB-75 CNS) was 10.3 µM and the TGI (SNB-75 CNS) was greater than 100 µM. For the same compound, the GI50 (SR leukemia) was 0.568 µM, the TGI (SR leukemia) was greater than 100 µM and the GI50 (SW-620 colon) was 0.714 µM. The TGI (SW-620 colon) was greater than 100 µM, the GI50 (T-47D breast) was greater than 100 µM and the TGI (T-47D breast) was greater than 100 µM. For the same compound, the GI50 (TK-10 renal) was greater than 100 µM, the TGI (TK-10 renal) was greater than 100 µM and the GI50 (U251 CNS) was 1.16 µM. It also gave a TGI (U251 CNS) greater than 100 µM, a GI50 (UACC-257 melanoma) greater than 100 µM and a TGI (UACC-257 melanoma) greater than 100 µM. For the same compound, the GI50 (UACC-62 melanoma) was 4.74 µM, the TGI (UACC-62 melanoma) was greater than 100 µM and the GI50 (UO-31 renal) was greater than 100 µM. It also gave a TGI (UO-31 renal) greater than 100 µM.
